Each compound was assayed against GCN2 kinase (Homo sapiens, UniProt Q9P2K8) (assay: GCN2 enzyme inhibition assay (Transcreener ADP2 fluorescence polarization)). Details: Enzyme activity for compounds of Formula IV; Ki(app), 280 μM ATP, 25° C.
Assay type: biochemical
How it was run: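 Kinase activity is followed as ADP formation, measured by fluorescence polarization, using 4 nM enzyme with 280 μM ATP and 200 μM (RS)7 peptide at pH 7.5 and 25 °C for 1 h. Values come from a non-linear tight-binding fit.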

GCN2 kinase, sequence (Q9P2K8 whole entry): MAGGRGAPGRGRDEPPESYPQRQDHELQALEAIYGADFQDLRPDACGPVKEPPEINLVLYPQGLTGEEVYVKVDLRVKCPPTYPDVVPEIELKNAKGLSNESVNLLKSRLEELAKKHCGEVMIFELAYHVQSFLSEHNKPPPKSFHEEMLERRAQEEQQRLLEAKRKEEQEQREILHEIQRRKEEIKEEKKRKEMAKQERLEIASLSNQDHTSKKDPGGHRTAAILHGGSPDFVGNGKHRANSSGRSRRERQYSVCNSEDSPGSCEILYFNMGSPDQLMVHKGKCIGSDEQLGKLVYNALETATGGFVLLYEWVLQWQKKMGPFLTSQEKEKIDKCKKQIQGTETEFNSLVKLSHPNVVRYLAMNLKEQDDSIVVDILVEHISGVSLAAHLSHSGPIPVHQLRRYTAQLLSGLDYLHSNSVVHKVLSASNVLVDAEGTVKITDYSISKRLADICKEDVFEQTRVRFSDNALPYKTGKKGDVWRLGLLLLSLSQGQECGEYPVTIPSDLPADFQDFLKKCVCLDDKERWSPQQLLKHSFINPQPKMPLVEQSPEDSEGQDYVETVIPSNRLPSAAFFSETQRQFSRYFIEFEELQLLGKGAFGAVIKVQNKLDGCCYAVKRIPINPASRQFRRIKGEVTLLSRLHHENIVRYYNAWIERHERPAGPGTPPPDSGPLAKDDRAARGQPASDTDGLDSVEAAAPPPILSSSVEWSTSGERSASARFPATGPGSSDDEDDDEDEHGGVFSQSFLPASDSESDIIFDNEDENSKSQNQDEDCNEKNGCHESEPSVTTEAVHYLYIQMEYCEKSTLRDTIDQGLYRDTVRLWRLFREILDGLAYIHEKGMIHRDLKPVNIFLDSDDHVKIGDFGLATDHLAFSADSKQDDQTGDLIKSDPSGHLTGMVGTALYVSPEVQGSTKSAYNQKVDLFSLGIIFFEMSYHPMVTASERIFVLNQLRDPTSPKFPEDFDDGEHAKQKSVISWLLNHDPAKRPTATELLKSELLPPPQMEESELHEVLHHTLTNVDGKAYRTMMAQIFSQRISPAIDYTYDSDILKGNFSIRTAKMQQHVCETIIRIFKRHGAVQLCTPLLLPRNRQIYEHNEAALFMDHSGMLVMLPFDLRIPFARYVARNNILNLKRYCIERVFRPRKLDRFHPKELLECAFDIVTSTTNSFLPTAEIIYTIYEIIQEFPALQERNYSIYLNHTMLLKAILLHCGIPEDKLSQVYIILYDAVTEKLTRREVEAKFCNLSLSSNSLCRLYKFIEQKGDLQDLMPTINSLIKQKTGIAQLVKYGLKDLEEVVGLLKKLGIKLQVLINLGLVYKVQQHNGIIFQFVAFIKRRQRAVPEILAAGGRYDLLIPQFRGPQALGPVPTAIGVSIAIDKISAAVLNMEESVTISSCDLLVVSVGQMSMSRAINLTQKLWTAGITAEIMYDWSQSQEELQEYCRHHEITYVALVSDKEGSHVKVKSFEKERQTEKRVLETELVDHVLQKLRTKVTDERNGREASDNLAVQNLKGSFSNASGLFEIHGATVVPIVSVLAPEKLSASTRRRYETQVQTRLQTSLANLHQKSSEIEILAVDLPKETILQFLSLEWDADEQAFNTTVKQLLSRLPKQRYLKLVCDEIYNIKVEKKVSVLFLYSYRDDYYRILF

Question: With `O=C1NCCN2CCN(c3ccnc(-c4cnc5cnc(C(F)(F)F)cn45)n3)CC12` (centres unmarked) [IV-568, 8-(2-(6-(Trifluoromethyl)imidazo[1,2-a]pyrazin-3-yl)pyrimidin-4-yl)hexahydro-2H-pyrazino[1,2-a]pyrazin-1(6H)-one] as the compound, how does the Ki read?
Answer: 100 to 1000 nM

Question: For `NC(=O)c1cn2c(-c3cccc(N4CCC(O)CC4)n3)cnc2cn1` [IV-219, 3-(6-(4-Hydroxypiperidin-1-yl)pyridin-2-yl)imidazo[1,2-a]pyrazine-6-carboxamide], which Ki is on record?
Answer: 10 to 100 nM

Question: `CCN1C(C)CN(c2ccnc(-c3cnc4cnc(C(F)(F)F)cn34)n2)C(C)C1c1cn[nH]c1` (single isomer, unassigned) [IV-296, 3-(4-(4-Ethyl-2,5-dimethyl-3-(1H-pyrazol-4-yl)piperazin-1-yl)pyrimidin-2-yl)-6-(trifluoromethyl)imidazo[1,2-a]pyrazine] was tested. Which Ki did it give?
Answer: < 10 nM

Question: For `CC1C(c2cn[nH]c2)OCCN1c1ccnc(-c2cnc3cnc(C(F)(F)F)cn23)n1` (centres unmarked) [IV-218, 3-Methyl-2-(1H-pyrazol-4-yl)-4-(2-(6-(trifluoromethyl)imidazo[1,2-a]pyrazin-3-yl)pyrimidin-4-yl)morpholine], which Ki is on record?
Answer: 10 to 100 nM

Question: How did the Ki turn out when `FC(F)(F)c1cn2c(-c3nccc(N4CCCC(n5cncn5)C4)n3)cnc2cn1` (centres unmarked) [IV-547, 3-(4-(3-(1H-1,2,4-Triazol-1-yl)piperidin-1-yl)pyrimidin-2-yl)-6-(trifluoromethyl)imidazo[1,2-a]pyrazine] was run?
Answer: 100 to 1000 nM

Question: Which Ki does the source give for `FC(F)(F)c1cn2c(-c3nccc(N4CCC(c5ccncc5)C4)n3)cnc2cn1` (centres unmarked) [IV-550, 3-(4-(3-(Pyridin-4-yl)pyrrolidin-1-yl)pyrimidin-2-yl)-6-(trifluoromethyl)imidazo[1,2-a]pyrazine] here?
Answer: 100 to 1000 nM

Question: Which Ki does the source give for `FC(F)(F)c1cn2c(-c3nccc(N4CCCC(C5CCOC5)C4)n3)cnc2cn1` (single isomer, unassigned) [IV-543, 3-(4-(3-(Tetrahydrofuran-3-yl)piperidin-1-yl)pyrimidin-2-yl)-6-(trifluoromethyl)imidazo[1,2-a]pyrazine] here?
Answer: 100 to 1000 nM

Question: How did the Ki turn out when `CC(=O)NCC1CCN(c2ccnc(-c3cnc4cnc(C(F)(F)F)cn34)n2)C1` (centres unmarked) [IV-537, N-((1-(2-(6-(Trifluoromethyl)imidazo[1,2-a]pyrazin-3-yl)pyrimidin-4-yl)pyrrolidin-3-yl)methyl)acetamide] was run?
Answer: 100 to 1000 nM

Question: How did the Ki turn out when `CN1CCN(c2ccnc(-c3cnc4cnc(C(F)(F)F)cn34)n2)CC1` [IV-585, 3-(4-(4-Methylpiperazin-1-yl)pyrimidin-2-yl)-6-(trifluoromethyl)imidazo[1,2-a]pyrazine] was run?
Answer: 100 to 1000 nM

Question: `O=C1CN(C2CCCN(c3ccnc(-c4cnc5cnc(C(F)(F)F)cn45)n3)C2)CCN1` (centres unmarked) [IV-490, 4-(1-(2-(6-(Trifluoromethyl)imidazo[1,2-a]pyrazin-3-yl)pyrimidin-4-yl)piperidin-3-yl)piperazin-2-one] was tested. Which Ki did it give?
Answer: 100 to 1000 nM

Question: `FC(F)(F)c1cn2c(-c3nccc(N4CCCC(c5nnc[nH]5)C4)n3)cnc2cn1` (centres unmarked) [IV-326, 3-(4-(3-(4H-1,2,4-Triazol-3-yl)piperidin-1-yl)pyrimidin-2-yl)-6-(trifluoromethyl)imidazo[1,2-a]pyrazine] was tested. Which Ki did it give?
Answer: 100 to 1000 nM

Question: Which Ki does the source give for `FC(F)(F)c1cn2c(-c3nccc(N4CCCC4Cc4ccccc4)n3)cnc2cn1` (centres unmarked) [IV-561, 3-(4-(2-Benzylpyrrolidin-1-yl)pyrimidin-2-yl)-6-(trifluoromethyl)imidazo[1,2-a]pyrazine] here?
Answer: 100 to 1000 nM

Question: For `NC(=O)c1cn2c(-c3cccc(N4CCC(CO)CC4)n3)cnc2cn1` [IV-221, 3-(6-(4-(Hydroxymethyl)piperidin-1-yl)pyridin-2-yl)imidazo[1,2-a]pyrazine-6-carboxamide], which Ki is on record?
Answer: 10 to 100 nM

Question: How did the Ki turn out when `NC(=O)CC1CCCN(c2ccnc(-c3cnc4cnc(C(F)(F)F)cn34)n2)C1` (centres unmarked) [IV-529, 2-(1-(2-(6-(Trifluoromethyl)imidazo[1,2-a]pyrazin-3-yl)pyrimidin-4-yl)piperidin-3-yl)acetamide] was run?
Answer: 100 to 1000 nM

Question: How did the Ki turn out when `CC1COC(CO)CN1c1ccnc(-c2cnc3cnc(C(F)(F)F)cn23)n1` (centres unmarked) [IV-613, (5-Methyl-4-(2-(6-(trifluoromethyl)imidazo[1,2-a]pyrazin-3-yl)pyrimidin-4-yl)morpholin-2-yl)methanol] was run?
Answer: 100 to 1000 nM

Question: Which Ki does the source give for `O=C(Nc1cccnc1)[C@H]1CCCN(c2ccnc(-c3cnc4cnc(C(F)(F)F)cn34)n2)C1` [IV-723] here?
Answer: 100 to 1000 nM

Same assay, conditions: compounds of Formula II; 280 μM ATP, 4 nM GCN2 kinase

Question: `CC1CC(N=S(C)(=O)C2CC2)CN(c2cc(-c3cnc4ccc(C(F)F)nn34)ncn2)C1` (single isomer, unassigned) [II-647, Cyclopropyl((1-(6-(6-(difluoromethyl)imidazo[1,2-b]pyridazin-3-yl)pyrimidin-4-yl)-5-methylpiperidin-3-yl)imino)(methyl)-λ^6-sulfanone] was tested. Which Ki did it give?
Answer: 10 to 1000 nM

Question: Which Ki does the source give for `CS(=O)(=O)NCC1CCCN(c2cc(-c3cnc4ccc(C(F)F)nn34)cc(NCCO)n2)C1` (centres unmarked) [II-91, N-((1-(4-(6-(Difluoromethyl)imidazo[1,2-b]pyridazin-3-yl)-6-((2-hydroxyethyl)amino)pyridin-2-yl)piperidin-3-yl)methyl)methanesulfonamide] here?
Answer: < 10 nM

Question: How did the Ki turn out when `CC1C(CO)CCCN1c1cc(-c2cnc3ccc(C(F)F)nn23)ncn1` (centres unmarked) [II-554, (1-(6-(6-(Difluoromethyl)imidazo[1,2-b]pyridazin-3-yl)pyrimidin-4-yl)-2-methylpiperidin-3-yl)methanol] was run?
Answer: 10 to 1000 nM

Question: For `CCS(C)(=O)=NC1CC(C)CN(c2cc(-c3cnc4ccc(C(F)F)nn34)ncn2)C1` (centres unmarked) [II-635, ((1-(6-(6-(Difluoromethyl)imidazo[1,2-b]pyridazin-3-yl)pyrimidin-4-yl)-5-methylpiperidin-3-yl)imino)(ethyl)(methyl)-λ^6-sulfanone], which Ki is on record?
Answer: 10 to 1000 nM

Question: With `COCCN1CCN(c2cc(-c3cnc4ccc(C(F)F)nn34)ncn2)C(C)C1CNS(C)(=O)=O` (centres unmarked) [II-494, N-((4-(6-(6-(Difluoromethyl)imidazo[1,2-b]pyridazin-3-yl)pyrimidin-4-yl)-1-(2-methoxyethyl)-3-methylpiperazin-2-yl)methyl)methanesulfonamide] as the compound, how does the Ki read?
Answer: < 10 nM

Question: `CS(=O)(=O)NC1CN(c2cc(-c3cnc4ccc(C(F)F)nn34)ncn2)CCC1(F)F` (centres unmarked) [II-589, N-(1-(6-(6-(Difluoromethyl)imidazo[1,2-b]pyridazin-3-yl)pyrimidin-4-yl)-4,4-difluoropiperidin-3-yl)methanesulfonamide] was tested. Which Ki did it give?
Answer: 10 to 1000 nM

Question: Which Ki does the source give for `CC1C(N=S(C)(C)=O)CCCN1c1cc(-c2cnc3ccc(C(F)F)nn23)ncn1` (centres unmarked) [II-579, ((1-(6-(6-(Difluoromethyl)imidazo[1,2-b]pyridazin-3-yl)pyrimidin-4-yl)-2-methylpiperidin-3-yl)imino)dimethyl-λ^6-sulfanone] here?
Answer: 10 to 1000 nM

Question: With `CS(=N)(=O)CC1CCCN(c2cc(-c3cnc4ccc(C(F)F)nn34)ncn2)C1` (single isomer, unassigned) [II-639, ((1-(6-(6-(Difluoromethyl)imidazo[1,2-b]pyridazin-3-yl)pyrimidin-4-yl)piperidin-3-yl)methyl)(imino)(methyl)-λ^6-sulfanone] as the compound, how does the Ki read?
Answer: 10 to 1000 nM

Question: For `CC1(C)CN(c2cc(-c3cnc4ccc(C(F)F)nn34)ncn2)CC(CNS(C)(=O)=O)N1` (centres unmarked) [II-570, N-((4-(6-(6-(Difluoromethyl)imidazo[1,2-b]pyridazin-3-yl)pyrimidin-4-yl)-6,6-dimethylpiperazin-2-yl)methyl)methanesulfonamide], which Ki is on record?
Answer: 10 to 1000 nM

Question: `CC1C(N=S(C)(C)=O)CCCN1c1cc(-c2cnc3ccc(C(F)F)nn23)ncn1` (centres unmarked) [II-578, ((1-(6-(6-(Difluoromethyl)imidazo[1,2-b]pyridazin-3-yl)pyrimidin-4-yl)-2-methylpiperidin-3-yl)imino)dimethyl-λ^6-sulfanone] was tested. Which Ki did it give?
Answer: < 10 nM

Reference: patent US10988477B2 (Merck Patent GmbH, priority 2018, dated 2021)
